For one data set, the system named is PGE2. Put plainly: LPS-induced PGE2 production in peritoneal macrophages (ELISA). Type of data set: cell-based, C57BL/6 mice. To be noted: 30 μM, LPS 10 ng/mL, 6 h (Figure 6). The protocol: (§1) Peritoneal macrophages were obtained by washing the peritoneal cavities of C57B1/6 mice five days after intraperitoneal instillation of 2 mL of 3% thioglycollate. Macrophages were seeded in RPMI containing 10% FCS at 2 × 10^5 cells/well in 96-well plates and cultured for 2 h at 37 °C under a 5% CO2 atmosphere. Adherent cells were pretreated with the compounds (30 μM) 1 h before stimulation with LPS (10 ng/mL). For dose–response experiments, compounds were used at concentrations of 1, 3, 10, and 30 μM. Supernatants were collected 6 h after LPS stimulation. Control and experimental treatments were performed in the presence of 0.5% DMSO, as the compounds were solubilized in this solvent. The concentrations of TNF-α, IL-6, and PGE2 were determined by ELISA (R&D System) following the manufacturer’s protocol.

The subject of a further data set is IL-6. Put plainly: LPS-induced IL-6 production in peritoneal macrophages (ELISA). Format: cell-based, C57BL/6 mice. As for the experimental part:
as §1
(§2) Results from the cytokine measurements and cytotoxicity assays were analyzed using the statistical software package GraphPad Prism 9.4.0. All data are presented as the mean ± S.E.M. Statistical analysis was performed by Student’s t-test. The differences between samples were considered significant when p < 0.05. The 50% inhibitory concentration (IC50) was calculated by adjusting a sigmoidal dose–response curve following the standard procedure in GraphPad Prism 5.

In data set [1] the test system is macrophages from the peritoneal cavities of C57BL/6 mice. The data set can be described thus: MTT cytotoxicity assay on macrophages. To be noted: 30 μM, after supernatant collection (Figure 4C). Format: cell-based. As for the experimental part: After removing the supernatants, 100 μL of 0.5 mg/mL MTT in RPMI was added to each well. Cells were incubated overnight at 37 °C, and formazan crystals were dissolved in 100 µL of 0.04 M HCl in isopropanol. Then, the absorbance was measured at 570 nm using an ELISA plate reader. Cell viability was calculated using the following formula: % viability: [(OD sample) × 100%]/(OD control). Nonstimulated cells represented 100% viability.

Another data set deals with TNF-α. The data set can be described thus: LPS-induced TNF-α production in peritoneal macrophages (ELISA). Type of data set: cell-based, C57BL/6 mice. The following applies: for IC50: macrophages pretreated 1 h, supernatant 6 h, two independent experiments in triplicate, read-out: IC50 ± S.D. (μM) TNF-α. As for the experimental part:
as §1, §2

[2] abbreviates: Mus musculus, Macrophage, macrophages pretreated 1 h, LPS 10 ng/mL, supernatant 6 h, two independent experiments in triplicate, read-out: IC50 ± S.D. (μM) IL-6.
[3] abbreviates: Mus musculus, Peritoneal macrophage, converted from IL-6 IC50 of this work, used for 3D-QSAR, read-out: Experimental pIC50 (converted).
Where [4] appears, read: dose-response, 10 µM (Figure 5B).
Setting [5] is: Mus musculus, Macrophage, LPS 10 ng/mL.
Setting [6] is: dose-response, lowest concentration 1 µM (Figure 5B).
Setting [7] is: dose-response, all concentrations tested (1, 3, 10, 30 μM) (Figure 5A).
Where [8] appears, read: single concentration 30 μM, LPS 10 ng/mL, 6 h (Figure 4A).

Entries after “also recorded” stand apart in the source; their conditions may differ. Read-outs that look alike come from different tables or passages of the source.

With `C#CCOC(=O)CCC(=O)Oc1ccc(CCC(=O)/C=C(\O)CCc2ccc(OC(=O)CCC(=O)OCC#C)c(OC)c2)cc1OC` [Compound 3, (Z)-O,O′-((3-Hydroxy-5-oxohept-3-ene-1,7-diyl)bis(2-methoxy-4,1-phenylene)) di(prop-2-yn-1-yl) Disuccinate], the “reduction of PGE2 production” value in the data set with PGE2 is recorded as “significantly reduced; also recorded: highest activity”. Further, in the data set with IL-6 (single concentration 30 μM, LPS 10 ng/mL, 6 h (Figure 4B)), the “inhibition of IL-6 production” value is recorded as “All compounds, except compound 3, inhibited the production of IL-6”.

Turning to `COc1cc(CCC(=O)/C=C(\O)CCc2ccc(OC(=O)CCC(=O)OC3c4ccccc4-c4ccccc43)c(OC)c2)ccc1OC(=O)CCC(=O)OC1c2ccccc2-c2ccccc21` [Compound 4, (Z)-di(9H-Fluoren-9-yl)O,O′-((3-hydroxy-5-oxohept-3-ene-1,7-diyl)bis(2-methoxy-4,1-phenylene)) Disuccinate], the IC50 with IL-6 (setting [2]) is 4.28 ± 4.88 µM; in the data set on IL-6 (setting [3]), 4.27 µM. The “inhibition of IL-6 production” value with IL-6 (setting [4]) is reported as “inhibited”.

Take `COc1cc(CCC(=O)/C=C(\O)CCc2ccc(OC(=O)CCC(=O)OC3Cc4ccccc4C3)c(OC)c2)ccc1OC(=O)CCC(=O)OC1Cc2ccccc2C1` [Compound 5, (Z)-bis(2,3-Dihydro-1H-inden-2-yl) O,O′-((3-hydroxy-5-oxohept-3-ene-1,7-diyl)bis(2-methoxy-4,1-phenylene)) Disuccinate]: the IC50 in the data set on IL-6 (setting [2]) is 9.13 ± 5.9 µM; in the data set on IL-6 (setting [3]) it was 9.12 µM.

As to `COc1cc(CCC(=O)/C=C(\O)CCc2ccc(OC(=O)CCC(=O)OC(c3ccccc3)c3ccccc3)c(OC)c2)ccc1OC(=O)CCC(=O)OC(c1ccccc1)c1ccccc1` [Compound 6, (Z)-Dibenzhydryl O,O′-((3-hydroxy-5-oxohept-3-ene-1,7-diyl)bis(2-methoxy-4,1-phenylene)) Disuccinate], the “cytotoxicity (cell viability, MTT)” value in data set [1] was “cytotoxic”.

On to `COc1cc(CC/C(O)=C/C(=O)CCc2ccc(OC(=O)CCC(=O)O[C@@H]3C[C@H](C)CC[C@H]3C(C)C)c(OC)c2)ccc1OC(=O)CCC(=O)O[C@@H]1C[C@@H](C)CC[C@@H]1C(C)C` [Compound 7, O,O′-(((Z)-3-Hydroxy-5-oxohept-3-ene-1,7-diyl)bis(2-methoxy-4,1-phenylene)) bis((1R,2S,5R)-2-Isopropyl-5-methylcyclohexyl) Disuccinate], for which the “cytotoxicity (cell viability, MTT)” value in data set [1] is listed as “cytotoxic”.

As for `COc1cc(CCC(=O)/C=C(\O)CCc2ccc(OC(=O)CCC(=O)OC3CCCc4ccccc43)c(OC)c2)ccc1OC(=O)CCC(=O)OC1CCCc2ccccc21` (stereo not shown) [Compound 8, (Z)-O,O′-((3-Hydroxy-5-oxohept-3-ene-1,7-diyl)bis(2-methoxy-4,1-phenylene)) bis(1,2,3,4-Tetrahydronaphthalen-1-yl) Disuccinate], the IC50 in the data set on TNF-α (setting [5]) is 3.21 ± 4.52 µM; with IL-6 (setting [2]), 3.48 ± 4.39 µM; with IL-6 (setting [3]), 3.47 µM. The “inhibition of IL-6 production” value in the data set with IL-6 (setting [4]) was “inhibited”.

In the case of `COc1cc(CCC(=O)/C=C(\O)CCc2ccc(OC(=O)CCC(=O)OCc3ccccc3)c(OC)c2)ccc1OC(=O)CCC(=O)OCc1ccccc1` [Compound 9, (Z)-Dibenzyl O,O′-((3-Hydroxy-5-oxohept-3-ene-1,7-diyl)bis(2-methoxy-4,1-phenylene)) Disuccinate], the “cytotoxicity (cell viability, MTT)” value in data set [1] is given as “cytotoxic”.

Turning to `COc1cc(CCC(=O)/C=C(\O)CCc2ccc(OC(=O)CCC(=O)OC3CCCC3)c(OC)c2)ccc1OC(=O)CCC(=O)OC1CCCC1` [Compound 10, (Z)-Dicyclopentyl O,O′-((3-Hydroxy-5-oxohept-3-ene-1,7-diyl)bis(2-methoxy-4,1-phenylene)) Disuccinate], the figures for the IC50 in the data set with IL-6 (setting [2]) and with IL-6 (setting [3]) were 3.66 ± 4.21 µM and 3.63 µM, respectively.

As to `COC(=O)CCC(=O)Oc1ccc(CCC(=O)/C=C(\O)CCc2ccc(OC(=O)CCC(=O)OC)c(OC)c2)cc1OC` [Compound 11, (Z)-O,O′-((3-Hydroxy-5-oxohept-3-ene-1,7-diyl)bis(2-methoxy-4,1-phenylene)) dimethyl Disuccinate], the “reduction of PGE2 production” value with PGE2 is given as “significantly reduced; also recorded: highest activity”. In addition, in the data set on TNF-α (dose-response, 3 µM (Figure 5A)), the “inhibition of TNF-α production” value is listed as “showed an effect only when used at a concentration of 3 µM”. In addition, the IC50 in the data set on IL-6 (setting [2]) is 0.17 ± 0.21 µM; in the data set with IL-6 (setting [3]) it was 0.17 µM. For the same molecule, in the data set on IL-6 (setting [6]), the “inhibition of IL-6 production” value is reported as “inhibited”.

`C=CCOC(=O)CCC(=O)Oc1ccc(CCC(=O)/C=C(\O)CCc2ccc(OC(=O)CCC(=O)OCC=C)c(OC)c2)cc1OC` [Compound 12, (Z)-Diallyl O,O′-((3-hydroxy-5-oxohept-3-ene-1,7-diyl)bis(2-methoxy-4,1-phenylene)) Disuccinate]: the “reduction of PGE2 production” value in the data set on PGE2 is reported as “significantly reduced; also recorded: highest activity; also recorded: more biologically active than tetrahydrocurcumin”. For the same molecule, the values for the IC50 in the data set on TNF-α (setting [5]), with IL-6 (setting [2]) and in the data set with IL-6 (setting [3]) were 0.7 ± 0.1 µM, 0.72 ± 0.38 µM and 0.724 µM, respectively. The “inhibition of TNF-α production” value in the data set with TNF-α (setting [7]) and in the data set on TNF-α (setting [8]) was “inhibited” in each case. Besides, the “inhibition of IL-6 production” value in the data set on IL-6 (setting [6]) is given as “inhibited”.

Consider “Curcumin [Compound 1, reference compound]”, for which the IC50 in the data set with IL-6 (Table S1, compounds presented in the current work, read-out: IC50 ± S.D. (uM) IL-6) amounted to 6.85 ± 2.5 µM.

Regarding “Tetrahydrocurcumin [Compound 2, reference compound]”, in the data set with PGE2, the “reduction of PGE2 production” value is “but not PGE2 production”. Also, the “inhibition of TNF-α production” value with TNF-α (setting [7]) and in the data set with TNF-α (setting [8]) was “inhibited” each time. The IC50 turned out to be 0.18 ± 0.18 µM in the data set on TNF-α (LPS 10 ng/mL) and 0.17 ± 0.2 µM in the data set on IL-6 (macrophages pretreated 1 h, LPS 10 ng/mL, supernatant 6 h, two independent experiments in triplicate, read-out: IC50 ± S.D. (μM) IL-6). Moreover, the “Experimental pIC50” value with IL-6 (converted from IL-6 IC50 of this work, used for 3D-QSAR) is reported as 6.77. In addition, the “inhibition of IL-6 production” value with IL-6 (setting [4]) and with IL-6 (setting [6]) was “inhibited” in each case.

The record behind these values is article PMC10708537, “Tetrahydrocurcumin Derivatives Enhanced the Anti-Inflammatory Activity of Curcumin: Synthesis, Biological Evaluation, and Structure–Activity Relationship Analysis” (Molecules, 2023).
